The values that follow come from patent US12404295B2, “(Hetero)aryl-methyl-thio-beta-D-galactopyranoside derivatives” (Idorsia Pharmaceuticals Ltd, priority 2019, dated 2025).

The target in one assay is human Gal-1 (hGal-1) (Homo sapiens (Human), UniProt P09382). Kind of assay: competitive binding assay: biotinylated hGal-1 binding to microplate-adsorbed asialofetuin (ASF). As to conditions: Table 15; read-out: IC50 (Galectin-1 inhibition). In a few lines:
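Spectrophotometric competition readout: after compound and biotinylated hGal-1 (300-1000 ng/mL) sit 3 h at 4° C on adsorbed asialofetuin, streptavidin-peroxidase (1 h, 4° C) and ABTS reveal residual binding. Reported IC50 values are means of repeat runs.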

The target of the next assay is human Gal-3 (hGal-3) (Homo sapiens (Human), UniProt P17931). As to the kind of experiment: competitive binding assay: biotinylated hGal-3 binding to microplate-adsorbed asialofetuin (ASF). The method, boiled down:
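3 h, 4 °C binding step; cold buffer wash; streptavidin-HRP 80 ng/mL, 1 h, 4 °C; ABTS colorimetric read-out. Compounds diluted serially in DMSO. IC50 reported as mean of repeat runs.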

Setting [1] is: Gal-3 inhibition, binding of biotinylated hGal-3 to ASF, mean values, read-out: IC50.
[2] abbreviates: Table 10, 2-OMe-Gal inhibitors, read-out: IC50 (Gal-3 inhibition).
Setting [3] is: Table 5, read-out: IC50 (Gal-3 inhibition).

The structures appear in SMILES notation. Like-named read-outs stand apart in the source and are kept apart here.

Chain of human Gal-1 (hGal-1) (P09382 whole entry): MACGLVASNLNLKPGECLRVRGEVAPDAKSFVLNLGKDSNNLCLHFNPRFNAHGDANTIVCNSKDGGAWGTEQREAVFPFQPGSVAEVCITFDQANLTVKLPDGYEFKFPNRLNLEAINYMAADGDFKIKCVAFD
Chain of human Gal-3 (hGal-3) (P17931 whole entry): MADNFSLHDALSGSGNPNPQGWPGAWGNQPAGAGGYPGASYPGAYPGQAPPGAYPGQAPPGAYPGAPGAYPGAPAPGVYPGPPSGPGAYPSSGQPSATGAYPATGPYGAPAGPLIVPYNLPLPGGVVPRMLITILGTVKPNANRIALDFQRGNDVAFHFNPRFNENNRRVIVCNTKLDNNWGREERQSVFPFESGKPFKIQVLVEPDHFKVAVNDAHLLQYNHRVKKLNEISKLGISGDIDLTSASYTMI

In general, IC50 refers to the concentration needed to halve the response being measured. For `Cc1nc([C@H](S[C@@H]2O[C@H](CO)[C@H](O)[C@H](n3cc(-c4cc(F)c(F)c(F)c4)nn3)[C@H]2O)C(C)(C)O)c(C)o1` [Example 2.31.122S., (2S,3R,4S,5R,6R)-2-(((S)-1-(2,5-dimethyloxazol-4-yl)-2-hydroxy-2-methylpropyl)thio)-6-(hydroxymethyl)-4-(4-(3,4,5-trifluorophenyl)-1H-1,2,3-triazol-1-yl)tetrahydro-2H-pyran-3,5-diol], the IC50 was 11200 nM on human Gal-1 (hGal-1) and 4120 nM at human Gal-3 (hGal-3) (setting [1]).

`Cc1ccnnc1[C@@H](S[C@@H]1O[C@H](CO)[C@H](O)[C@H](n2cc(-c3cc(F)c(F)c(F)c3)nn2)[C@H]1O)C1(O)CCC(F)(F)CC1` [Example 2.44.135R., (2S,3R,4S,5R,6R)-2-(((R)-(4,4-Difluoro-1-hydroxycyclohexyl)(4-methylpyridazin-3-yl)methyl)thio)-6-(hydroxymethyl)-4-(4-(3,4,5-trifluorophenyl)-1H-1,2,3-triazol-1-yl)tetrahydro-2H-pyran-3,5-diol]: the IC50 at human Gal-1 (hGal-1) is 220 nM; on human Gal-3 (hGal-3) (setting [1]) it was 40 nM.

As for `CCO[C@@H]1[C@@H](n2cc(-c3cc(F)c(F)c(F)c3)nn2)[C@@H](O)[C@@H](CO)O[C@H]1S[C@@H](c1ncccc1C)C1(O)CCC(F)(F)CC1` [Example 2.44.126S.II., (2R,3R,4S,5R,6S)-6-(((S)-(4,4-Difluoro-1-hydroxycyclohexyl)(3-methylpyridin-2-yl)methyl)thio)-5-ethoxy-2-(hydroxymethyl)-4-(4-(3,4,5-trifluorophenyl)-1H-1,2,3-triazol-1-yl)tetrahydro-2H-pyran-3-ol], the values for the IC50 on human Gal-1 (hGal-1) and at human Gal-3 (hGal-3) (setting [1]) were 24300 nM and 980 nM, respectively.

Turning to `CO[C@@H]1[C@@H](n2cc(-c3cc(F)c(F)c(F)c3)nn2)[C@@H](O)[C@@H](CO)O[C@H]1S[C@H](c1nocc1C)C1(O)CCS(=O)(=O)CC1` [Example 2.66.120R.I., 4-Hydroxy-4-((R)-(((2S,3R,4S,5R,6R)-5-hydroxy-6-(hydroxymethyl)-3-methoxy-4-(4-(3,4,5-trifluorophenyl)-1H-1,2,3-triazol-1-yl)tetrahydro-2H-pyran-2-yl)thio)(4-methylisoxazol-3-yl)methyl)tetrahydro-2H-thiopyran 1,1-dioxide], the IC50 on human Gal-1 (hGal-1) worked out at 580 nM; at human Gal-3 (hGal-3) (setting [2]) it was 70 nM.

As for `Cc1ccccc1[C@H](S[C@@H]1O[C@H](CO)[C@H](O)[C@H](n2cc(-c3cc(F)c(F)c(F)c3)nn2)[C@H]1O)C1(O)CC(C)C1` (stereo partly drawn) [Example 2.36.102S., (2S,3R,4S,5R,6R)-2-(((1S)-(1-Hydroxy-3-methylcyclobutyl)(o-tolyl)methyl)thio)-6-(hydroxymethyl)-4-(4-(3,4,5-trifluorophenyl)-1H-1,2,3-triazol-1-yl)tetrahydro-2H-pyran-3,5-diol], the IC50 stood at 54200 nM at human Gal-1 (hGal-1) and 7200 nM on human Gal-3 (hGal-3) (setting [3]).

For the compound `CO[C@@H]1[C@@H](n2cc(-c3cc(F)c(F)c(F)c3)nn2)[C@@H](O)[C@@H](CO)O[C@H]1SC(c1c(C)cnn1C)C1(O)CCC(F)(F)CC1` (stereo partly drawn) [Example 2.44.136.I., (2R,3R,4S,5R,6S)-6-(((4,4-Difluoro-1-hydroxycyclohexyl)(1,4-dimethyl-1H-pyrazol-5-yl)methyl)thio)-2-(hydroxymethyl)-5-methoxy-4-(4-(3,4,5-trifluorophenyl)-1H-1,2,3-triazol-1-yl)tetrahydro-2H-pyran-3-ol], the IC50 at human Gal-1 (hGal-1) was 2530 nM; at human Gal-3 (hGal-3) (setting [2]), 420 nM.

As for `Cc1nc(C)c([C@@H](S[C@@H]2O[C@H](CO)[C@H](O)[C@H](n3cc(-c4cc(F)c(F)c(F)c4)nn3)[C@H]2O)C2(O)CCCCC2)nc1C` [Example 2.39.119R., (2S,3R,4S,5R,6R)-2-(((R)-(1-Hydroxycyclohexyl) (3,5,6-trimethylpyrazin-2-yl)methyl)thio)-6-(hydroxymethyl)-4-(4-(3,4,5-trifluorophenyl)-1H-1,2,3-triazol-1-yl)tetrahydro-2H-pyran-3,5-diol], the IC50 on human Gal-1 (hGal-1) was 730 nM; on human Gal-3 (hGal-3) (setting [3]), 70 nM.

`OC[C@H]1O[C@@H](S[C@H](c2ccccc2C(F)(F)F)C2(O)CC(F)(F)C2)[C@H](O)[C@@H](n2cc(-c3cc(F)c(F)c(F)c3)nn2)[C@H]1O` [Example 2.33.112R., (2S,3R,4S,5R,6R)-2-(((R)-(3,3-Difluoro-1-hydroxycyclobutyl)(2-(trifluoromethyl)phenyl)methyl)thio)-6-(hydroxymethyl)-4-(4-(3,4,5-trifluorophenyl)-1H-1,2,3-triazol-1-yl)tetrahydro-2H-pyran-3,5-diol]: the IC50 at human Gal-1 (hGal-1) amounted to 670 nM; at human Gal-3 (hGal-3) (setting [3]) it was 140 nM.

Consider `COC(=O)N1CCC(O)([C@H](S[C@@H]2O[C@H](CO)[C@H](O)[C@H](n3cc(-c4cc(F)c(F)c(F)c4)nn3)[C@H]2O)c2ccccc2C(F)(F)F)CC1` [Example 2.50.112R., Methyl 4-((R)-(((2S,3R,4S,5R,6R)-3,5-dihydroxy-6-(hydroxymethyl)-4-(4-(3,4,5-trifluorophenyl)-1H-1,2,3-triazol-1-yl)tetrahydro-2H-pyran-2-yl)thio)(2-(trifluoromethyl)phenyl)methyl)-4-hydroxypiperidine-1-carboxylate], for which the IC50 on human Gal-1 (hGal-1) is 370 nM; at human Gal-3 (hGal-3) (setting [1]) it was 80 nM.

On to `CC(C)(O)[C@H](S[C@@H]1O[C@H](CO)[C@H](O)[C@H](n2cc(-c3cc(F)c(F)c(F)c3)nn2)[C@H]1O)c1ccccc1C1CC1` [Example 2.31.106R., (2S,3R,4S,5R,6R)-2-(((R)-1-(2-cyclopropylphenyl)-2-hydroxy-2-methylpropyl)thio)-6-(hydroxymethyl)-4-(4-(3,4,5-trifluorophenyl)-1H-1,2,3-triazol-1-yl)tetrahydro-2H-pyran-3,5-diol], for which the IC50 at human Gal-1 (hGal-1) was determined as 210 nM; at human Gal-3 (hGal-3) (setting [1]) it was 140 nM.

On to `Cc1ccccc1[C@H](S[C@@H]1O[C@H](CO)[C@H](O)[C@H](n2cc(-c3cc(F)c(F)c(F)c3)nn2)[C@H]1O)C(C)(C)O` [Example 2.31.102S., (2S,3R,4S,5R,6R)-2-(((S)-2-Hydroxy-2-methyl-1-(o-tolyl)propyl)thio)-6-(hydroxymethyl)-4-(4-(3,4,5-trifluorophenyl)-1H-1,2,3-triazol-1-yl)tetrahydro-2H-pyran-3,5-diol], for which the IC50 is 6980 nM on human Gal-1 (hGal-1) and 4430 nM on human Gal-3 (hGal-3) (setting [1]).

Consider `CC(C)(O)C(S[C@@H]1O[C@H](CO)[C@H](O)[C@H](n2cc(-c3ccc4ccccc4c3)nn2)[C@H]1O)c1ccccc1C(F)(F)F` (stereo partly drawn) [Example 4.31.112, (2S,3R,4S,5R,6R)-2-((2-Hydroxy-2-methyl-1-(2-(trifluoromethyl)phenyl)propyl)thio)-6-(hydroxymethyl)-4-(4-(naphthalen-2-yl)-1H-1,2,3-triazol-1-yl)tetrahydro-2H-pyran-3,5-diol], for which the IC50 on human Gal-1 (hGal-1) worked out at 2270 nM; on human Gal-3 (hGal-3) (setting [1]), 2240 nM.

As to `CCCc1ccccc1C(S[C@@H]1O[C@H](CO)[C@H](O)[C@H](n2cc(-c3cc(F)c(F)c(F)c3)nn2)[C@H]1O)C(C)(C)O` (stereo partly drawn) [Example 2.31.104., (2S,3R,4S,5R,6R)-2-((2-Hydroxy-2-methyl-1-(2-propylphenyl)propyl)thio)-6-(hydroxymethyl)-4-(4-(3,4,5-trifluorophenyl)-1H-1,2,3-triazol-1-yl)tetrahydro-2H-pyran-3,5-diol], the figures for the IC50 at human Gal-1 (hGal-1) and on human Gal-3 (hGal-3) (setting [1]) were 600 nM and 170 nM, respectively.

As to `Cc1ccnnc1[C@H](S[C@@H]1O[C@H](CO)[C@H](O)[C@H](n2cc(-c3cc(F)c(F)c(F)c3)nn2)[C@H]1O)C1(O)CCC(F)(F)CC1` [Example 2.44.135S., (2S,3R,4S,5R,6R)-2-(((S)-(4,4-Difluoro-1-hydroxycyclohexyl)(4-methylpyridazin-3-yl)methyl)thio)-6-(hydroxymethyl)-4-(4-(3,4,5-trifluorophenyl)-1H-1,2,3-triazol-1-yl)tetrahydro-2H-pyran-3,5-diol], the IC50 was determined as 5430 nM on human Gal-1 (hGal-1) and 2790 nM at human Gal-3 (hGal-3) (setting [1]).

For `OC[C@H]1O[C@@H](S[C@@H](c2ncccc2C2CC2)C2(O)CCC(F)(F)CC2)[C@H](O)[C@@H](n2cc(-c3cc(F)c(F)c(F)c3)nn2)[C@H]1O` [Example 2.44.134S., (2S,3R,4S,5R,6R)-2-(((S)-(3-Cyclopropylpyridin-2-yl)(4,4-difluoro-1-hydroxycyclohexyl)methyl)thio)-6-(hydroxymethyl)-4-(4-(3,4,5-trifluorophenyl)-1H-1,2,3-triazol-1-yl)tetrahydro-2H-pyran-3,5-diol], the IC50 came to 2700 nM on human Gal-1 (hGal-1) and 700 nM at human Gal-3 (hGal-3) (setting [1]).

For the compound `CS(=O)(=O)N1CCC(O)([C@@H](S[C@@H]2O[C@H](CO)[C@H](O)[C@H](n3cc(-c4cc(F)c(F)c(F)c4)nn3)[C@H]2O)c2ccccc2C(F)(F)F)CC1` [Example 2.47.112S., (2S,3R,4S,5R,6R)-2-(((S)-(4-Hydroxy-1-(methylsulfonyl)piperidin-4-yl)(2-(trifluoromethyl)phenyl)methyl)thio)-6-(hydroxymethyl)-4-(4-(3,4,5-trifluorophenyl)-1H-1,2,3-triazol-1-yl)tetrahydro-2H-pyran-3,5-diol], the IC50 at human Gal-1 (hGal-1) is 17500 nM; at human Gal-3 (hGal-3) (setting [1]), 2820 nM.

As for `CO[C@@H]1[C@@H](n2cc(-c3cc(F)c(F)c(F)c3)nn2)[C@@H](O)[C@@H](CO)O[C@H]1S[C@H](c1nocc1C)C1(O)CCC(F)(F)CC1` [Example 2.44.120R.I., (2R,3R,4S,5R,6S)-6-(((R)-(4,4-Difluoro-1-hydroxycyclohexyl)(4-methylisoxazol-3-yl)methyl)thio)-2-(hydroxymethyl)-5-methoxy-4-(4-(3,4,5-trifluorophenyl)-1H-1,2,3-triazol-1-yl)tetrahydro-2H-pyran-3-ol], the values for the IC50 at human Gal-1 (hGal-1) and at human Gal-3 (hGal-3) (setting [2]) were 610 nM and 210 nM, respectively.
